Data as given in patent US7341749B2, “Flavopereirine and alstonine combinations in the treatment and prevention of prostate cancer” (Natural Source International Ltd., priority 2004, dated 2008).

Test system: LNCaP cells
Assay: Induction of apoptosis (PARP cleavage, Caspase-3 activity)
Type: cell-based, human
Settings: inferred from the extract experiments

Row | SMILES | induction of the apoptosis pathway (mechanism of action of the active compound)
1 | COC(=O)C1=CO[C@@H](C)[C@@H]2Cn3ccc4c5ccccc5nc-4c3C[C@H]12 [alstonine] | relatively minor effect
2 | CCc1ccc2c3[nH]c4ccccc4c3cc[n+]2c1 [flavopereirine] | primary mechanism of action
